{"source": "patent US6737383B1", "about": "“Herbicidal oxadiazolidines” (priority 1999, dated 2004)", "key": {"bedstraw": {"tested_on": "bedstraw", "assay": "Test B pre/postemergence bedstraw", "assay_type": "in vivo, Galium aparine", "outline": "(§1)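 Response is a visual 0-to-10 score relative to untreated plants, where 0 means no effect and 10 means complete control, taken twelve to sixteen days after application. Treatments went onto soil at planting and onto foliage of 1- to 4-leaf plants, using a surfactant-containing non-phytotoxic solvent.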"}, "surinam grass": {"tested_on": "surinam grass", "assay": "Test B pre/postemergence surinam grass", "assay_type": "in vivo, Brachiaria decumbens", "outline": "as §1"}, "cocklebur": {"tested_on": "cocklebur", "assay": "Test B pre/postemergence cocklebur", "assay_type": "in vivo, Xanthium strumarium", "outline": "as §1"}, "corn": {"tested_on": "corn", "assay": "Test B pre/postemergence corn", "assay_type": "in vivo, Zea mays", "outline": "as §1"}, "crabgrass": {"tested_on": "crabgrass", "assay": "Test B pre/postemergence crabgrass", "assay_type": "in vivo, Digitaria sanguinalis", "outline": "as §1"}, "morningglory": {"tested_on": "morningglory", "assay": "Test B pre/postemergence morningglory", "assay_type": "in vivo, Ipomoea hederacea", "outline": "as §1"}, "pigweed": {"tested_on": "pigweed", "assay": "Test B pre/postemergence pigweed", "assay_type": "in vivo, Amaranthus retroflexus", "outline": "as §1"}, "rape": {"tested_on": "rape", "assay": "Test B pre/postemergence rape", "assay_type": "in vivo, Brassica napus", "outline": "as §1"}, "soybean": {"tested_on": "soybean", "assay": "Test B pre/postemergence soybean", "assay_type": "in vivo, Glycine max", "outline": "as §1"}, "sugar beet": {"tested_on": "sugar beet", "assay": "Test B pre/postemergence sugar beet", "assay_type": "in vivo, Beta vulgaris", "outline": "as §1"}, "velvetleaf": {"tested_on": "velvetleaf", "assay": "Test B pre/postemergence velvetleaf", "assay_type": "in vivo, Abutilon theophrasti", "outline": "as §1"}, "wild oat": {"tested_on": "wild oat", "assay": "Test B pre/postemergence wild oat", "assay_type": "in vivo, Avena fatua", "outline": "as §1"}, "rice": {"tested_on": "rice", "assay": "Test B flood test rice", "assay_type": "in vivo, Oryza sativa", "outline": "(§2)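 Read-out is a visual response score from 0 (no effect) to 10 (complete control), assigned by comparison with untreated controls. Treatment was applied at the 2-leaf stage, and plants stayed in the greenhouse for twelve to sixteen days before scoring.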"}, "smallflower flatsedge": {"tested_on": "smallflower flatsedge", "assay": "Test B flood test smallflower flatsedge", "assay_type": "in vivo, Cyperus difformis", "outline": "as §2"}, "duck salad": {"tested_on": "duck salad", "assay": "Test B flood test duck salad", "assay_type": "in vivo, Heteranthera limosa", "outline": "as §2"}, "bamyardgrass": {"tested_on": "bamyardgrass", "assay": "Test B flood test barnyardgrass", "assay_type": "in vivo, Echinochloa crus-galli", "outline": "as §2"}, "[1]": {"details": "Preemergence, Rate 62 g/ha, scale of 0 to 10 where 0 is no effect and 10 is complete control"}, "[2]": {"details": "Preemergence, Rate 250 g/ha, scale of 0 to 10 where 0 is no effect and 10 is complete control"}, "[3]": {"details": "Preemergence, Rate 500 g/ha, scale of 0 to 10 where 0 is no effect and 10 is complete control"}, "[4]": {"details": "Rate 62 g/ha, Postemergence, scale 0 to 10 (0 no effect, 10 complete control)"}, "[5]": {"details": "Rate 125 g/ha, Postemergence, scale of 0 to 10 where 0 is no effect and 10 is complete control"}, "[6]": {"details": "Rate 125 g/ha, Preemergence, scale of 0 to 10 where 0 is no effect and 10 is complete control"}, "[7]": {"details": "Rate 250 g/ha, Postemergence, scale of 0 to 10 where 0 is no effect and 10 is complete control"}, "[8]": {"details": "Rate 500 g/ha, Postemergence, scale 0 to 10, 0 no effect, 10 complete control"}, "[9]": {"details": "Rate 62 g/ha, headed Pre-emergence (flood test species), scale 0 to 10 (0 no effect, 10 complete control)"}, "[10]": {"details": "Rate 125 g/ha, Pre-emergence, flood test species, scale 0 to 10 where 0 is no effect and 10 is complete control"}, "[11]": {"details": "Rate 250 g/ha, Pre-emergence, flood-test species, scale 0 to 10, 0 is no effect, 10 is complete control"}, "[12]": {"details": "Rate 500 g/ha, Pre-emergence, flood test species, scale 0 to 10 (0 no effect, 10 complete control)"}}, "data": [{"smiles": "CC(C)N(C(=O)n1oc(=O)n(C[Si](C)(C)C)c1=O)c1ccc(F)cc1", "note": "[Compound 294]", "values": [{"measurement": "Bedstraw plant response rating", "setting": "bedstraw; [1]", "result": 0}, {"measurement": "Bedstraw plant response rating", "setting": "bedstraw; [2]", "result": 0}, {"measurement": "Plant response rating, Bedstraw", "setting": "bedstraw; [3]", "result": 0}, {"measurement": "Bedstraw plant response rating", "setting": "bedstraw; [4]", "result": 3}, {"measurement": "Bedstraw plant response rating", "setting": "bedstraw; [5]", "result": 6}, {"measurement": "Bedstraw plant response rating", "setting": "bedstraw; [6]", "result": 0}, {"measurement": "Plant response rating, Bedstraw", "setting": "bedstraw; [7]", "result": 8}, {"measurement": "Bedstraw plant response rating", "setting": "bedstraw; [8]", "result": 9}, {"measurement": "B. signalgrass plant response rating", "setting": "surinam grass; [1]", "result": 0}, {"measurement": "B. signalgrass plant response rating", "setting": "surinam grass; [2]", "result": 7}, {"measurement": "Plant response rating, B. signalgrass", "setting": "surinam grass; [3]", "result": 9}, {"measurement": "B. signalgrass plant response rating", "setting": "surinam grass; [4]", "result": 0}, {"measurement": "B. signalgrass plant response rating", "setting": "surinam grass; [5]", "result": 0}, {"measurement": "B. signalgrass plant response rating", "setting": "surinam grass; [6]", "result": 7}, {"measurement": "Plant response rating, B. signalgrass", "setting": "surinam grass; [7]", "result": 0}, {"measurement": "B. signalgrass plant response rating", "setting": "surinam grass; [8]", "result": 0}, {"measurement": "Cocklebur plant response rating", "setting": "cocklebur; [1]", "result": 0}, {"measurement": "Cocklebur plant response rating", "setting": "cocklebur; [2]", "result": 0}, {"measurement": "Cocklebur plant response rating", "setting": "cocklebur; [4]", "result": 0}, {"measurement": "Cocklebur plant response rating", "setting": "cocklebur; [5]", "result": 0}, {"measurement": "Cocklebur plant response rating", "setting": "cocklebur; [6]", "result": 0}, {"measurement": "Plant response rating, Cocklebur", "setting": "cocklebur; [7]", "result": 0}, {"measurement": "Cocklebur plant response rating", "setting": "cocklebur; [8]", "result": 0}, {"measurement": "Corn plant response rating", "setting": "corn; [1]", "result": 0}, {"measurement": "Corn plant response rating", "setting": "corn; [2]", "result": 0}, {"measurement": "Plant response rating, Corn", "setting": "corn; [3]", "result": 2}, {"measurement": "Corn plant response rating", "setting": "corn; [4]", "result": 0}, {"measurement": "Corn plant response rating", "setting": "corn; [5]", "result": 0}, {"measurement": "Corn plant response rating", "setting": "corn; [6]", "result": 0}, {"measurement": "Plant response rating, Corn", "setting": "corn; [7]", "result": 0}, {"measurement": "Corn plant response rating", "setting": "corn; [8]", "result": 0}, {"measurement": "Crabgrass plant response rating", "setting": "crabgrass; [1]", "result": 1}, {"measurement": "Crabgrass plant response rating", "setting": "crabgrass; [2]", "result": 9}, {"measurement": "Plant response rating, Crabgrass", "setting": "crabgrass; [3]", "result": 10}, {"measurement": "Crabgrass plant response rating", "setting": "crabgrass; [4]", "result": 0}, {"measurement": "Crabgrass plant response rating", "setting": "crabgrass; [5]", "result": 0}, {"measurement": "Crabgrass plant response rating", "setting": "crabgrass; [6]", "result": 9}, {"measurement": "Plant response rating, Crabgrass", "setting": "crabgrass; [7]", "result": 2}, {"measurement": "Morningglory plant response rating", "setting": "morningglory; [1]", "result": 0}, {"measurement": "Morningglory plant response rating", "setting": "morningglory; [2]", "result": 0}, {"measurement": "Plant response rating, Morningglory", "setting": "morningglory; [3]", "result": 0}, {"measurement": "Morningglory plant response rating", "setting": "morningglory; [4]", "result": 6}, {"measurement": "Morningglory plant response rating", "setting": "morningglory; [5]", "result": 6}, {"measurement": "Morningglory plant response rating", "setting": "morningglory; [6]", "result": 0}, {"measurement": "Plant response rating, Morningglory", "setting": "morningglory; [7]", "result": 9}, {"measurement": "Redroot pigweed plant response rating", "setting": "pigweed; [1]", "result": 0}, {"measurement": "Redroot pigweed plant response rating", "setting": "pigweed; [2]", "result": 0}, {"measurement": "Plant response rating, Redroot pigweed", "setting": "pigweed; [3]", "result": 2}, {"measurement": "Redroot pigweed plant response rating", "setting": "pigweed; [4]", "result": 0}, {"measurement": "Redroot pigweed plant response rating", "setting": "pigweed; [5]", "result": 0}, {"measurement": "Redroot pigweed plant response rating", "setting": "pigweed; [6]", "result": 0}, {"measurement": "Plant response rating, Redroot pigweed", "setting": "pigweed; [7]", "result": 0}, {"measurement": "Rape plant response rating", "setting": "rape; [1]", "result": 0}, {"measurement": "Rape plant response rating", "setting": "rape; [2]", "result": 0}, {"measurement": "Plant response rating, Rape", "setting": "rape; [3]", "result": 3}, {"measurement": "Rape plant response rating", "setting": "rape; [4]", "result": 0}, {"measurement": "Rape plant response rating", "setting": "rape; [5]", "result": 0}, {"measurement": "Rape plant response rating", "setting": "rape; [6]", "result": 0}, {"measurement": "Plant response rating, Rape", "setting": "rape; [7]", "result": 2}, {"measurement": "Soybean plant response rating", "setting": "soybean; [1]", "result": 0}, {"measurement": "Soybean plant response rating", "setting": "soybean; [2]", "result": 0}, {"measurement": "Plant response rating, Soybean", "setting": "soybean; [3]", "result": 0}, {"measurement": "Soybean plant response rating", "setting": "soybean; [4]", "result": 2}, {"measurement": "Soybean plant response rating", "setting": "soybean; [5]", "result": 3}, {"measurement": "Soybean plant response rating", "setting": "soybean; [6]", "result": 0}, {"measurement": "Plant response rating, Soybean", "setting": "soybean; [7]", "result": 4}, {"measurement": "Sugarbeets plant response rating", "setting": "sugar beet; [1]", "result": 0}, {"measurement": "Sugarbeets plant response rating", "setting": "sugar beet; [2]", "result": 0}, {"measurement": "Plant response rating, Sugarbeets", "setting": "sugar beet; [3]", "result": 2}, {"measurement": "Sugarbeets plant response rating", "setting": "sugar beet; [4]", "result": 0}, {"measurement": "Sugarbeets plant response rating", "setting": "sugar beet; [5]", "result": 0}, {"measurement": "Sugarbeets plant response rating", "setting": "sugar beet; [6]", "result": 0}, {"measurement": "Plant response rating, Sugarbeets", "setting": "sugar beet; [7]", "result": 0}, {"measurement": "Velvetleaf plant response rating", "setting": "velvetleaf; [1]", "result": 0}, {"measurement": "Velvetleaf plant response rating", "setting": "velvetleaf; [2]", "result": 3}, {"measurement": "Plant response rating, Velvetleaf", "setting": "velvetleaf; [3]", "result": 4}, {"measurement": "Velvetleaf plant response rating", "setting": "velvetleaf; [4]", "result": 0}, {"measurement": "Velvetleaf plant response rating", "setting": "velvetleaf; [5]", "result": 0}, {"measurement": "Velvetleaf plant response rating", "setting": "velvetleaf; [6]", "result": 0}, {"measurement": "Plant response rating, Velvetleaf", "setting": "velvetleaf; [7]", "result": 0}, {"measurement": "Wild oats plant response rating", "setting": "wild oat; [1]", "result": 0}, {"measurement": "Wild oats plant response rating", "setting": "wild oat; [2]", "result": 3}, {"measurement": "Plant response rating, Wild oats", "setting": "wild oat; [3]", "result": 8}, {"measurement": "Wild oats plant response rating", "setting": "wild oat; [4]", "result": 0}, {"measurement": "Wild oats plant response rating", "setting": "wild oat; [5]", "result": 0}, {"measurement": "Plant response rating, Wild oats", "setting": "wild oat; [7]", "result": 0}, {"measurement": "Rice plant response rating", "setting": "rice; [9]", "result": 0}, {"measurement": "Rice plant response rating", "setting": "rice; [10]", "result": 0}, {"measurement": "Rice plant response rating", "setting": "rice; [11]", "result": 0}, {"measurement": "Rice plant response rating", "setting": "rice; [12]", "result": 0}, {"measurement": "S. Flatsedge plant response rating", "setting": "smallflower flatsedge; [9]", "result": 0}, {"measurement": "S. Flatsedge plant response rating", "setting": "smallflower flatsedge; [10]", "result": 0}, {"measurement": "S. Flatsedge plant response rating", "setting": "smallflower flatsedge; [11]", "result": 0}, {"measurement": "S. Flatsedge plant response rating", "setting": "smallflower flatsedge; [12]", "result": 4}, {"measurement": "Ducksalad plant response rating", "setting": "duck salad; [9]", "result": 0}, {"measurement": "Ducksalad plant response rating", "setting": "duck salad; [10]", "result": 0}, {"measurement": "Ducksalad plant response rating", "setting": "duck salad; [11]", "result": 0}, {"measurement": "Ducksalad plant response rating", "setting": "duck salad; [12]", "result": 0}, {"measurement": "Barnyardgrass plant response rating", "setting": "bamyardgrass; [9]", "result": 0}, {"measurement": "Barnyardgrass plant response rating", "setting": "bamyardgrass; [10]", "result": 3}, {"measurement": "Barnyardgrass plant response rating", "setting": "bamyardgrass; [11]", "result": 9}, {"measurement": "Barnyardgrass plant response rating", "setting": "bamyardgrass; [12]", "result": 9}]}]}
